The results in this text go back to EP4792813A1, “USE OF […] PREPARATION OF DRUG FOR PREVENTING AND TREATING SEPSIS AND SEPSIS-INDUCED ORGAN DAMAGE” (Lunan Pharmaceutical Group Corporation, priority 2023, dated 2025).

Common to all, as to assay type: in vivo, C57BL/6J mice
In assay [1] the test system is mice with LPS-induced sepsis. Nature of the assay: Serum inflammatory factors (ELISA) in mice with LPS-induced sepsis. The following applies: for serum inflammatory factor indices: result in words, compared with the model group; for IL-6 / TNF-α: serum, 24 h after LPS, x±s, n = 6. The protocol: (§1) After 1 week of acclimatization, mice were randomly divided into 8 groups: normal group, model group, positive control group, control group 1, control group 2, and compound I low-, medium- and high-dose groups, with 20 mice in each group. […] After the experiment was started, the normal group and model group were intraperitoneally injected with normal saline according to the body weight. The positive control group was intraperitoneally injected with 1 mg/kg dexamethasone. The Compound I low-, medium- and high-dose groups were intraperitoneally injected with 1 mg/kg, 2.5 mg/kg and 5 mg/kg compound I according to the body weight, respectively. The control group 1 was intraperitoneally injected with 5 mg/kg control compound 1 according to the body weight, and the control group 2 was intraperitoneally injected with 5 mg/kg control compound 2 according to the body weight. After 1 h, the normal group was intraperitoneally injected with normal saline according to the body weight, and the model group and each administration group were injected with 20 mg/kg LPS and then dissected 24 h later.
The blood samples were allowed to stand at room temperature for 1 h, followed by centrifugation at 3000 r/min to obtain serum. The serum was divided into two aliquots. One aliquot was processed in accordance with the instructions of TNF-α and IL-1β ELISA kits. Each well was measured at 450 nm using a microplate reader. The OD value of each sample was determined by subtracting the absorbance of the blank control well from the measured value. A standard curve was plotted based on the concentrations and OD values of standard samples to calculate the concentrations of the samples.

Assay [2] concerns mice with LPS-induced sepsis. The assay is described as follows: Serum biochemical parameters (ALT, AST, UREA, CREA-S) in mice with LPS-induced sepsis. Also on record: CREA-S: unit not given here. The following applies: for serum ALT, AST, UREA and CREA-S levels: result in words, compared with the model group; for ALT / AST / CREA-S / UREA: serum, 24 h after LPS, x±s, n = 7. The protocol:
as §1
A series of operations were performed on the serum in accordance with the instructions of the kits to detect ALT, AST, UREA and CREA-S concentrations.

Assay [3] relates to mice with LPS-induced sepsis-associated encephalopathy. The assay is described as follows: Nissl staining of hippocampus in mice with LPS-induced sepsis-associated encephalopathy. The following applies: 1, 2.5 and 5 mg/kg i.p. 1 h before 25 mg/kg LPS; 24 h; compared with the model group. The protocol: (§2) After 1 week of acclimatization, 60 male C57BL/6J mice were randomly divided into five groups: normal group, model group, Compound I low-dose group, Compound I medium-dose group and Compound I high-dose group, with 12 mice per group.
(§3) After the experiment was started, the normal group and model group were intraperitoneally injected with normal saline according to the body weight. The Compound I low-, medium- and high-dose groups were intraperitoneally injected with 1 mg/kg, 2.5 mg/kg and 5 mg/kg Compound I according to the body weight, respectively. After 1 h, the normal group was intraperitoneally injected with a corresponding volume of normal saline according to the body weight of the mice, while the model group and each administration group were injected with 25 mg/kg LPS. The administration volume was 10 mL/kg. After 24 h, the mice were anesthetized with pentobarbital sodium. The skull was opened and the brain was harvested, rinsed with normal saline, blotted dry with filter paper, and weighed. The brain index was calculated based on the following formula: Brain index = brain weight/body weight × 100% [formula]
The prepared sections were dried and dewaxed, and then stained with a Nissl staining solution for 90 min. […]

In assay [4] the test system is mice with LPS-induced sepsis. The assay is described as follows: HE staining of kidney tissue sections in mice with LPS-induced sepsis. The following applies: 24 h after intraperitoneal injection of 20 mg/kg LPS, compared with the model group, FIG. 1. As to the method:
as §1
Mouse kidney tissue sections were stained using a hematoxylin-eosin (HE) staining method. First, the baked sections were dewaxed using xylene until the sections became transparent. The dewaxed sections were rinsed with ethanol to remove xylene and then rinsed with distilled water. […]

Assay [5] deals with mice with LPS-induced sepsis-associated encephalopathy. The assay is described as follows: Novel object recognition test in mice with LPS-induced sepsis-associated encephalopathy. To be noted: 1, 2.5 and 5 mg/kg i.p. on days 1-3, 7.5 mg/kg LPS on days 1 and 2; compared with the model group; FIG. 6. As to the method:
as §2
On day 1 of the experiment, the normal group and model group were intraperitoneally injected with normal saline according to the body weight. The Compound I low-, medium- and high-dose groups were intraperitoneally injected with 1 mg/kg, 2.5 mg/kg and 5 mg/kg Compound I according to the body weight, respectively. After 1 h, the normal group was intraperitoneally injected with a corresponding volume of normal saline according to the body weight of the mice, while the model group and each administration group were injected with 7.5 mg/kg LPS. The administration volume was 10 mL/kg.
On day 2 of the experiment, the operations on day 1 were repeated. […]
The mice were individually placed in a square arena (40 × 40 × 40 cm) and allowed to move freely for 10 min. […] The time and frequency of mice contacting the objects or exploring within 2 cm of the objects (forepaws on the object, nose sniffing, or licking the object) were recorded. The preference index (PI) and discrimination index were calculated. […]

Assay [6] deals with mice with LPS-induced sepsis. Nature of the assay: 48 h survival rate of mice with LPS-induced sepsis. The following applies: within 48 h after 20 mg/kg LPS; result in words; FIG. 2. The protocol:
as §1
4.4 After 48 h, the survival rate of the remaining 10 mice in each group was observed.

For assay [7], the system named is mice with LPS-induced sepsis-associated encephalopathy. Nature of the assay: Brain index in mice with LPS-induced sepsis-associated encephalopathy. To be noted: 1, 2.5 and 5 mg/kg i.p. 1 h before 25 mg/kg LPS; 24 h; compared with the model group (p<0.01). As to the method: as §2, §3
Assay [8] shares this test system. Nature of the assay: Eight-arm maze test in mice with LPS-induced sepsis-associated encephalopathy. To be noted: compared with the model group. The protocol: After 1 week of acclimatization, 60 male C57BL/6J mice were randomly divided into five groups: normal group, model group, compound I low-dose group, Compound I medium-dose group and Compound I high-dose group, with 12 mice in each group.
After the experiment was started, the normal group and model group were intraperitoneally injected with normal saline according to the body weight. The Compound I low-, medium- and high-dose groups were intraperitoneally injected with 1 mg/kg, 2.5 mg/kg and 5 mg/kg compound I, respectively. After 1 h, the normal group was intraperitoneally injected with a corresponding volume of normal saline according to the body weight of the mice, while the model group and each administration group were injected with 10 mg/kg LPS, with an administration volume of 10 mL/kg.
Behavioral tests were performed in an automated eight-arm maze. Before the experiment was started, all the mice were required to undergo acclimatization training. The food intake of the mice was restricted daily to facilitate the rapid finding and memorization of food pellets placed in the 1st, 2nd, 4th and 7th arms during the test. On day 1, an equal amount of food pellets was placed in each arm. The mice were placed in the maze and then allowed to explore freely for 300 s before acclimatization was terminated. Starting from day 2, the automatic doors were first closed, and the mice were placed in the center of the maze for 15 s. The automatic doors were then opened to release the mice for testing. The training was terminated when the time reached 300 s or the mice found the food pellets. The training was conducted for a total of five days. Working memory errors were defined as repeated entries by the mice into arms where food pellets had already been found and consumed. Reference memory errors were defined as entries into arms without food pellets. The total number of arm entries was recorded as the total arm entries. The time required for the mice to find all food pellets was defined as the test duration. On the day 7 of the experiment, a formal trial was initiated, and this step unchanged. The frequencies of working memory errors and reference memory errors were calculated based on the recorded working memory errors, reference memory errors and total arm entries.

Where [9] appears, read: 5 mg/kg i.p. 1 h before 20 mg/kg LPS.
Setting [10] is: 1 mg/kg i.p. 1 h before 20 mg/kg LPS.
Where [11] appears, read: 2.5 mg/kg i.p. 1 h before 20 mg/kg LPS.
Setting [12] is: 1, 2.5 and 5 mg/kg i.p. 1 h before 10 mg/kg LPS, best effect in medium-dose group, FIG. 5.

With `O=C(c1cccc(O)c1)N1CCC(c2nc3cc(Cl)ccc3o2)CC1` [Control group 2], in assay [1] (setting [9]), the “serum inflammatory factor indices” value is “no significant improvements”, the IL-6 is reported as 24.56 ± 3.56 pg and the TNF-α came out at 238.20 ± 9.79 pg. In assay [2] (setting [9]), the “serum ALT, AST, UREA and CREA-S levels” value is given as “no significant improvements”; the ALT amounted to 77.76 ± 12.51 U/L; the AST came to 265.20±31.82 U/L; the CREA-S came out at 43.99 ± 5.81. Besides, the UREA in assay [2] (setting [9]) amounted to 47.22 ± 3.39 mmol/L.
In assay [1] (setting [10]), `C[C@@H]1C[C@H]2[C@@H]3CCC4=CC(=O)C=C[C@]4(C)[C@@]3(F)[C@@H](O)C[C@]2(C)[C@@]1(O)C(=O)CO` [Positive control group, dexamethasone] came in with an IL-6 of 16.49 ± 1.38 pg and a TNF-α of 79.27 ± 4.86 pg. In assay [2] (setting [10]), this compound registered an ALT of 58.94 ± 7.12 U/L, an AST of 142.8 ± 21.78 U/L and a UREA of 20.69 ± 5.68 mmol/L.
Turning to `O=C(Nc1cccc(Cl)c1)C1CCN(C(=O)c2ccc3ccccc3c2)CC1` [Control group 1], in assay [1] (setting [9]), the “serum inflammatory factor indices” value is reported as “no significant improvements”, the IL-6 is 24.72 ± 4.03 pg and the TNF-α is recorded as 244.20 ± 10.95 pg. Besides, in assay [2] (setting [9]), the “serum ALT, AST, UREA and CREA-S levels” value is listed as “no significant improvements”; the ALT amounted to 78.19 ± 10.95 U/L; the AST is on record as 271.1 ± 25.31 U/L; the UREA was determined as 46.47 ± 4.58 mmol/L.
On to `Cn1c(C(=O)N2CCC(C(=O)Nc3cccc(Cl)c3)CC2)cc2ccccc21` [Compound I, N-(3-chlorophenyl)-1-(1-methyl-1H-indole-2-carbonyl)piperidine-4-carboxamide], for which the “Nissl staining of the hippocampus region of the mouse brain tissue” value in assay [3] is “reduced neuronal pyknosis, recovered cell morphology and normal Nissl bodies”. Besides, the “changes of renal tubules (abnormal dilation of renal tubules, atrophy of epithelial cells and lightening of cytoplasm), HE staining” value in assay [4] was “significantly ameliorated”. Besides, in assay [1] (setting [10]), the IL-6 was 20.10 ± 3.28 pg and the TNF-α was determined as 127.00 ± 16.42 pg. In assay [1] (setting [11]), this compound registered an IL-6 of 17.60 ± 3.20 pg and a TNF-α of 76.30 ± 6.77 pg. For the same compound, in assay [1] (setting [9]), the IL-6 was 17.04 ± 2.94 pg and the TNF-α is given as 14.00 ± 2.29 pg. Moreover, in assay [5], the discrimination index result is on record as “increased” and the preference index result was “increased”. In assay [2] (setting [10]), this compound had an ALT of 69.44 ± 16.93 U/L, an AST of 183.40 ± 37.18 U/L, a CREA-S of 21.07 ± 5.89 and a UREA of 35.56 ± 8.88 mmol/L. In assay [2] (setting [11]), this compound came in with an ALT of 67.83 ± 19.01 U/L, an AST of 180.20 ± 54.87 U/L, a CREA-S of 18.64 ± 6.72 and a UREA of 26.02 ± 9.03 mmol/L. In addition, in assay [2] (setting [9]), the ALT is reported as 59.61 ± 6.89 U/L, the AST was 137.50 ± 26.26 U/L, the CREA-S was 20.80 ± 7.59 and the UREA came to 22.69 ± 10.33 mmol/L. For the same compound, the survival rate result in assay [6] is given as “significantly improve the survival rate”. Also, the brain index result in assay [7] is listed as “significantly reduced”. Further, in assay [8] (setting [12]), the “frequency of reference memory errors” value is reported as “decreased” and the “frequency of working memory errors” value is “decreased”. For the same compound, the test duration result in assay [8] (medium- and high-dose groups (2.5 and 5 mg/kg i.p.), 10 mg/kg LPS) was “decreased”. Besides, the “total numbers of arm entries” value in assay [8] (medium- and high-dose groups (2.5 and 5 mg/kg i.p.), 10 mg/kg LPS, most significant reduction in medium-dose group) is reported as “decreased”.
